Laboratory results as given in US7771713B2, “Chemical composition that attract arthropods” (priority 1999, dated 2010).

Assays:
Anopheles albimanus = assay: Olfactometer attraction test of compounds and compositions; assay type: in vivo;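 further: olfactometer with a treatment port and a matching control port using identical delivery device and conditions, both opened together, three tests per battery, each run in its own cage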
Aedes aegypti = assay: Olfactometer attraction test, treatment port vs control port, approximately 75 female mosquitoes; assay type: in vivo; conditions: for Response with L-LA (%): compound 500 μL together with L-lactic acid; for Δ [(Resp with LA) − Resp] (%): difference between response with L-lactic acid and response alone; for Response with Ace (%): base compound together with acetone; for Δ [(Resp with Ace) − Resp] (%): difference between response with acetone and response alone; for Response Avg %: 60 mL glass petri dish
Method: The tests were conducted in an olfactometer (55 ft^3/min airflow, 80° F., 60% R.H.) as described by Posey, J. Med. Entomol., 35, 330-334 (1998); and LA is lactic acid. Mosquitoes were allowed to settle at least one hour prior to testing. The olfactometer was cleaned after each battery of tests. Each battery consisted of three tests, conducted at 08:30, 11:00 and 13:00 hours local time. Each of the three tests was conducted in a separate cage. The control consisted of identical sample delivery devices and conditions compared to that of the treatment side. Both the treatment and control ports were opened and closed simultaneously when inserting a new treatment/control.

[1] = compound alone, high dose of 500 μL
[2] = base compound alone (mode of action similar to lactic acid)
[3] = single compound, dose 500 (μL), Aedes aegypti attraction

## ClCCl [methylene chloride]
Anopheles albimanus; single treatment, 500 μL
  % caught: 75.7%
Aedes aegypti
  Response with L-LA (%): 7090%
  Δ [(Resp with LA) − Resp] (%): −7%
Aedes aegypti; [1]
  Response (%): 87%

## CC(=O)c1ccccc1 [acetophenone]
Anopheles albimanus; single treatment, 500 μL
  % caught: 7.9%
Aedes aegypti
  Response with L-LA (%): 46%
  Δ [(Resp with LA) − Resp] (%): 37%
Aedes aegypti; [1]
  Response (%): 9%

## CC(=O)C(C)O (stereo not drawn) [3-hydroxy-2-butanone]
Anopheles albimanus; single treatment, 500 μL
  % caught: 1.3%
Aedes aegypti; [2]
  Response (%): 9%
Aedes aegypti
  Response with Ace (%): 57%
  Response with L-LA (%): 35%
  Δ [(Resp with LA) − Resp] (%): 24%
  Δ [(Resp with Ace) − Resp] (%): 48%
Aedes aegypti; [1]
  Response (%): 11%

## CCCC=O [butyraldehyde]
Anopheles albimanus; single treatment, 500 μL
  % caught: 1.3%
Aedes aegypti; [2]
  Response (%): 6%
Aedes aegypti
  Response with Ace (%): 7%
  Response with L-LA (%): 7%
  Δ [(Resp with LA) − Resp] (%): 1%
  Δ [(Resp with Ace) − Resp] (%): 1%
Aedes aegypti; [1]
  Response (%): 6%

## N#CCc1ccccc1 [phenylacetonitrile]
Anopheles albimanus; single treatment, 500 μL
  % caught: 1.3%
Aedes aegypti
  Response with L-LA (%): 63%
  Δ [(Resp with LA) − Resp] (%): 47%
Aedes aegypti; [1]
  Response (%): 16%

## CCCCCCCC(C)=O [2-nonanone]
Anopheles albimanus; single treatment, 500 μL
  % caught: 27.0%
Aedes aegypti
  Response with L-LA (%): 12%
  Δ [(Resp with LA) − Resp] (%): 4%
Aedes aegypti; [1]
  Response (%): 8%

## CCC(=O)C(C)C [2-methyl-3-pentanone]
Anopheles albimanus; single treatment, 500 μL
  % caught: 5.3%
Aedes aegypti
  Response with L-LA (%): 9%
  Δ [(Resp with LA) − Resp] (%): 8%
Aedes aegypti; [1]
  Response (%): 1%
Aedes aegypti; [3]
  Response Avg %: 1.0%

## CCC(C)=O [2-butanone]
Anopheles albimanus; single treatment, 500 μL
  % caught: 47.9%
Aedes aegypti
  Response with L-LA (%): 81%
  Δ [(Resp with LA) − Resp] (%): 53%
Aedes aegypti; [1]
  Response (%): 28%

## CCCC(=O)CC [3-hexanone]
Anopheles albimanus; single treatment, 500 μL
  % caught: 8.3%
Aedes aegypti
  Response with L-LA (%): 39%
  Δ [(Resp with LA) − Resp] (%): 38%
Aedes aegypti; [1]
  Response (%): 1%
Aedes aegypti; [3]
  Response Avg %: 1.0%

## CC(=O)C(C)=O [2,3-butanedione]
Anopheles albimanus; single treatment, 500 μL
  % caught: 1.4%
Aedes aegypti
  Response with L-LA (%): 29%
  Δ [(Resp with LA) − Resp] (%): −8%
Aedes aegypti; [1]
  Response (%): 37%

## Cc1ccc(O)cc1 [p-cresol]
Anopheles albimanus; single treatment, 500 μL
  % caught: 29.5%
Aedes aegypti
  Response with L-LA (%): 32%
  Δ [(Resp with LA) − Resp] (%): 27%
Aedes aegypti; [1]
  Response (%): 5%
Aedes aegypti; [3]
  Response Avg %: 5.0%

## CCCC(C)=O [2-pentanone]
Anopheles albimanus; single treatment, 500 μL
  % caught: 10.8%
Aedes aegypti
  Response with L-LA (%): 76%
  Δ [(Resp with LA) − Resp] (%): 64%
Aedes aegypti; [1]
  Response (%): 8%

## ClC(Cl)(Cl)Cl [carbon tetrachloride]
Anopheles albimanus; single treatment, 500 μL
  % caught: 74.0%
Aedes aegypti
  Response with L-LA (%): 92%
  Δ [(Resp with LA) − Resp] (%): 0%
Aedes aegypti; [1]
  Response (%): 92%

## ClC(Cl)Cl [chloroform]
Anopheles albimanus; in vivo
  % caught: 78.7%
Aedes aegypti
  Response with L-LA (%): 76%
  Δ [(Resp with LA) − Resp] (%): 52%
Aedes aegypti; [1]
  Response (%): 24%

## CCC(C)C(C)=O (stereo not drawn) [3-methyl-2-pentanone]
Anopheles albimanus; single treatment, 500 μL
  % caught: 17.1%
Aedes aegypti
  Response with L-LA (%): 9%
  Δ [(Resp with LA) − Resp] (%): 1%
Aedes aegypti; [1]
  Response (%): 8%

## CCC(=O)CC [3-pentanone]
Anopheles albimanus; single treatment, 500 μL
  % caught: 53.9%
Aedes aegypti
  Response with L-LA (%): 28%
  Δ [(Resp with LA) − Resp] (%): 16%
Aedes aegypti; [1]
  Response (%): 12%

## S=C=S [carbon disulfide]
Anopheles albimanus; single treatment, 500 μL
  % caught: 56.0%
Aedes aegypti
  Response with L-LA (%): 89%
  Δ [(Resp with LA) − Resp] (%): 7%
Aedes aegypti; [1]
  Response (%): 82%

## C=CC(=O)CC [1-penten-3-one]
Anopheles albimanus; single treatment, 500 μL
  % caught: 29.3%
Aedes aegypti
  Response with L-LA (%): 23%
  Δ [(Resp with LA) − Resp] (%): 4%
Aedes aegypti; [1]
  Response (%): 19%

## C=CC(C)=O [3-buten-2-one]
Anopheles albimanus; single treatment, 500 μL
  % caught: 45.2%
Aedes aegypti
  Response with L-LA (%): 39%
  Δ [(Resp with LA) − Resp] (%): 8%
Aedes aegypti; compound 500 μL with L-lactic acid in treatment port, mosquitoes in control port
  caught in CK (check or control port), with L-LA: 51%
Aedes aegypti; compound alone 500 μL in treatment port, mosquitoes in control port
  caught in CK (check or control port): 61%
Aedes aegypti; [1]
  Response (%): 31%
Aedes aegypti; no Base, Activator1 dose 500
  Response Avg %: 31.0%

## CCCCCCC(=O)CC [3-nonanone]
Anopheles albimanus; single treatment, 500 μL
  % caught: 15.8%
Aedes aegypti
  Response with L-LA (%): 9%
  Δ [(Resp with LA) − Resp] (%): 5%
Aedes aegypti; [1]
  Response (%): 4%
Aedes aegypti; [3]
  Response Avg %: 4.0%
